TGI and GI50 data for 16 compounds are collected here from PubChem BioAssay (NCI).

Among the test systems are SK-MEL-2 melanoma; IGROV1 ovarian; KM12 colon; HOP-62 NSCLC; SF-295 CNS; HCT-116 colon; OVCAR-4 ovarian; HOP-92 NSCLC; OVCAR-3 ovarian.
What all share (experiment): inhibition of tumour cell growth, NCI panel, 48 h

The structures appear in SMILES notation. Values joined by “and” are separate entries in the source; they are usually repeats but may differ in a detail not shown here. Equal entries are not always repeated.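 All cell lines were grown in 96-well plates and treated with compound for 48 hours. GI50 = concentration required for 50% inhibition of growth. TGI: total growth inhibition.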

With `CC(=O)c1ccc(NC(=O)C(=O)C(C(=O)/C=C/c2ccccc2)C2OC(=O)c3ccccc32)cc1` (stereo not given), the TGI in the experiment on SK-MEL-2 melanoma, in the experiment with IGROV1 ovarian, in the experiment on KM12 colon, with HOP-62 NSCLC, in the experiment on SF-295 CNS and in the experiment on HCT-116 colon was > 100 µM each time. Further, the TGI in the experiment with OVCAR-4 ovarian and in the experiment with HOP-92 NSCLC was > 100 µM in each case.
In the case of `C[N+](C)(C)CC1CCCCC1=O` (stereo not given), the TGI in the experiment with OVCAR-3 ovarian is 34.5 µM; with IGROV1 ovarian, > 100 µM; in the experiment on KM12 colon, > 100 µM; with HOP-62 NSCLC, > 100 µM; with SF-295 CNS it was > 100 µM; in the experiment with HCT-116 colon, 31.5 µM.
Turning to `N=c1c2ccccc2sc2nc3ccccc3n12`, the TGI in the experiment with SK-MEL-2 melanoma, in the experiment with IGROV1 ovarian, in the experiment with KM12 colon, in the experiment with HOP-62 NSCLC, in the experiment with SF-295 CNS and with OVCAR-4 ovarian was > 100 µM each time. The TGI with HOP-92 NSCLC is > 100 µM.
With `O=c1cc(-c2ccccc2)[nH]c2cc(F)cc(F)c12`, the TGI in the experiment on SK-MEL-2 melanoma is 84.4 µM; in the experiment on IGROV1 ovarian, > 100 µM; in the experiment on KM12 colon, > 100 µM; with HOP-62 NSCLC, > 100 µM; in the experiment on SF-295 CNS it was > 100 µM; with HCT-116 colon, > 100 µM. In addition, the TGI with OVCAR-4 ovarian and in the experiment with HOP-92 NSCLC was > 100 µM each time.
Regarding `COc1ccc(/C=C(\NC(=O)c2ccccc2)c2nc3ccccc3[nH]2)cc1OC`, the TGI with SK-MEL-2 melanoma, in the experiment on OVCAR-3 ovarian, in the experiment with IGROV1 ovarian, with KM12 colon, in the experiment with HOP-62 NSCLC and with SF-295 CNS was > 100 µM each time. The TGI in the experiment on HCT-116 colon, with OVCAR-4 ovarian and with HOP-92 NSCLC was > 100 µM throughout.
For `CC(=O)OC(C(=O)[O][Sn]([CH3])([CH3])[CH3])c1ccccc1` (stereo not given), the GI50 with OVCAR-3 ovarian, in the experiment with IGROV1 ovarian, with KM12 colon, in the experiment on HOP-62 NSCLC, with SF-295 CNS and in the experiment with HCT-116 colon was > 100 µM throughout. Further, the GI50 in the experiment on OVCAR-4 ovarian and in the experiment on HOP-92 NSCLC was > 100 µM each time. In addition, the TGI with OVCAR-3 ovarian, with IGROV1 ovarian, in the experiment with KM12 colon, with HOP-62 NSCLC, in the experiment on SF-295 CNS and in the experiment with HCT-116 colon was > 100 µM throughout. The TGI with OVCAR-4 ovarian and in the experiment on HOP-92 NSCLC was > 100 µM in each case.
Regarding `CC1(C)OC(=S)N(c2ccccc2)C12C=Cc1cc3ccccc3nc1S2` (stereo not given), the TGI with SK-MEL-2 melanoma, in the experiment with OVCAR-3 ovarian, in the experiment with IGROV1 ovarian, in the experiment with KM12 colon, with HOP-62 NSCLC and with HCT-116 colon was > 100 µM throughout. In the experiment on HOP-92 NSCLC, the TGI is > 100 µM.
Take `COC/N=C(\NC#N)NCOC`: the TGI in the experiment with SK-MEL-2 melanoma, with OVCAR-3 ovarian, with IGROV1 ovarian, with KM12 colon, in the experiment on HOP-62 NSCLC and in the experiment on SF-295 CNS was > 100 µM in each case. The TGI in the experiment on HCT-116 colon, in the experiment on OVCAR-4 ovarian and with HOP-92 NSCLC was > 100 µM in each case.
Consider `Clc1ccccc1CN1COc2c(ccc3cccnc23)C1`, for which the TGI came to 6.63 µM with SK-MEL-2 melanoma; 11.2 µM with OVCAR-3 ovarian; 11.6 µM in the experiment on IGROV1 ovarian; 18.1 µM in the experiment on KM12 colon; 7.25 µM in the experiment on HOP-62 NSCLC; 10.6 µM in the experiment on SF-295 CNS. Besides, the figures for the TGI in the experiment with HCT-116 colon, with OVCAR-4 ovarian and with HOP-92 NSCLC were 9.66 µM, 14.6 µM and 7.6 µM, respectively.
As for `COc1ccc(/C=C2/C(=O)N(C(=O)c3ccccc3O)N=C2C)cc1`, the TGI with SK-MEL-2 melanoma is > 100 µM; with OVCAR-3 ovarian, > 30.4 µM; with IGROV1 ovarian it was 0.0784 µM; with KM12 colon it was > 100 µM; in the experiment with SF-295 CNS it was > 100 µM; with HCT-116 colon, > 100 µM. The TGI with OVCAR-4 ovarian and with HOP-92 NSCLC was > 100 µM each time.
Regarding `CCOc1cccc2c1N[S@@](=O)S2`, the TGI in the experiment with SK-MEL-2 melanoma, with OVCAR-3 ovarian, in the experiment with IGROV1 ovarian, in the experiment on KM12 colon, in the experiment on SF-295 CNS and with HCT-116 colon was > 100 µM each time. Further, the TGI in the experiment on HOP-92 NSCLC is > 100 µM.
For the compound `O=c1c2c(-c3ccccc3)c3ccccc3nc2cnn1-c1ccccc1`, the TGI in the experiment with SK-MEL-2 melanoma, with OVCAR-3 ovarian, in the experiment with IGROV1 ovarian, in the experiment with KM12 colon, in the experiment on HOP-62 NSCLC and in the experiment on SF-295 CNS was > 100 µM in each case. The TGI in the experiment with HCT-116 colon, in the experiment on OVCAR-4 ovarian and in the experiment on HOP-92 NSCLC was > 100 µM each time.
`COc1cc(C(=O)N[C@H]2CCc3cc(OC)c(OC)c(OC)c3-c3ccc(SC)c(=O)cc32)cc(OC)c1OC`: the GI50 in the experiment on SK-MEL-2 melanoma is 0.02 µM; in the experiment on HOP-62 NSCLC, 0.47 µM; with OVCAR-4 ovarian, 0.0285 µM. The TGI was 25 µM and 62.7 µM in the experiment with IGROV1 ovarian; 16.4 µM with KM12 colon; 25 µM and > 100 µM in the experiment with HOP-62 NSCLC; 0.0684 µM and 0.0328 µM in the experiment with SF-295 CNS; 3.02 µM and 17 µM with HCT-116 colon; 25 µM and > 100 µM with OVCAR-4 ovarian. The TGI in the experiment with HOP-92 NSCLC came out at 25 µM.
`CO[C@H]1/C=C/O[C@@]2(C)Oc3c(C)c(O)c4c(O)c(c(/C=N/N5CCN(C)CC5)c(O)c4c3C2=O)NC(=O)/C(C)=C\C=C\[C@H](C)[C@H](O)[C@@H](C)[C@@H](O)[C@@H](C)[C@H](OC(C)=O)[C@@H]1C`: the TGI in the experiment on SK-MEL-2 melanoma, in the experiment with OVCAR-3 ovarian, with IGROV1 ovarian, in the experiment on KM12 colon, in the experiment on HOP-62 NSCLC and in the experiment on HCT-116 colon was > 100 µM in each case.
For the compound `COc1ccc(O)c(C(=O)CCC(=O)O)c1`, the TGI in the experiment on SK-MEL-2 melanoma was > 100 µM; in the experiment on OVCAR-3 ovarian it was > 10 µM; with IGROV1 ovarian, > 100 µM; with KM12 colon, > 100 µM; with HOP-62 NSCLC it was > 10 µM; in the experiment with SF-295 CNS, > 100 µM. Moreover, the TGI in the experiment with OVCAR-4 ovarian and in the experiment with HOP-92 NSCLC was > 100 µM each time.
With `CCOc1ccc(N=C(NC(=O)c2ccccc2)SC)cc1`, the TGI in the experiment on SK-MEL-2 melanoma, with OVCAR-3 ovarian, in the experiment on IGROV1 ovarian, in the experiment with HOP-62 NSCLC, with SF-295 CNS and in the experiment with HCT-116 colon was > 100 µM throughout. The TGI with OVCAR-4 ovarian and with HOP-92 NSCLC was > 100 µM in each case.
